Source: US20140228398A1, “COMBINATIONS OF ALPHA 7 NICOTINIC ACETYLCHOLINE RECEPTOR ACTIVATORS AND mGluR5 ANTAGONISTS FOR USE IN DOPAMINE INDUCED [sequence] IN PARKINSON'S DISEASE” (NOVARTIS AG, priority 2011, published 2014)

Legend:
[1] = Oral bioavailability and brain penetration in mice; format: in vivo; conditions: 30 μmol/kg p.o., ± SD
Description: […] Male mice (30-35g, OF1/ICstrain) were sacrificed at indicated time points after oral administration. Trunk-blood was collected in EDTA-containing tubes and the brain was removed and immediately frozen on dry ice. To 100 μl plasma 10 μl internal standard (1.0 pmol of a compound with solubility and ionization properties similar to test compounds) was added and extracted three times with 500 μl dichloromethane. The combined extracts were then dried under a stream of nitrogen and re-dissolved in 100 μl acetonitrile/water (70% acetonitrile). Brains were weighed and homogenized in water (1:5 w/v). Two 100 μl aliquots of each homogenate+10 μl of internal standard (same standard as used for the plasma samples) were extracted three times with 500 μl dichloromethane and further processed as the plasma samples. Samples were separated on Beckmann high-performance liquid chromatography equipment system with an autosampler (Gilson 233XL).
The limit of detection (LOD), defined as the lowest concentration of the extracted standard sample with a signal to noise ratio of ˜3.

mice = assay: Social Recognition Test in mice; format: in vivo, mouse; conditions: oral, dose 3 mg/kg, familiar partner at 24 h vs time 0
Description: Social interactions between two experimental animals are influenced by their degree of familiarity: the better they know each other, the less time they spend on mutual scrutiny at each meeting. […] Memory enhancing agents (i.e. oxiracetam) facilitate learning to the extent that the previously met (familiar) partner is still remembered after 24 h, whereas in vehicle treated control animals the memory usually fades after less than 1 hour (Thor and Holloway, 1982) or after 2-3 hours.
Baseline-test: Pairs consisting of one adult and one young mouse were assigned at random to the experimental and control groups. In each pair only the adult mouse was orally treated 1 hour before the trial with either vehicle or the test compound. The duration of active contacts of the adult mouse with the young mouse was manually recorded over a period of 3 min, including the following behavioural, approach-related items: sniffing, nosing, grooming, licking, pawing and playing, anogenital exploration and orientation toward the young mouse; orientation, thereby, was defined as tip of nose of the adult mouse less than approximately 1 cm distant from the young mouse's body. […]

parkinsonian primates [2] = assay: Movement disorder model: antidyskinetic effect in parkinsonian (MPTP) primates; format: in vivo, cynomolgus monkeys (Macaca fascicularis); conditions: for locomotor response / mean parkinsonian score: parkinsonian primates; for mean parkinsonian score: reduced from 9.4
Description: Female ovariectomized cynomolgus monkeys (Macaca fascicularis) are used in the assessment. The animals can be rendered parkinsonian by continuous infusion of 1-methyl-4-phenyl-1,2,3,6-tetrahydropyridine (MPTP) until they develop a stable parkinsonian syndrome. After recuperation, animals are treated daily with levodopa until clear and reproducible dyskinesias are developed.
Monkeys are observed through a one-way screen window in their home cage. They are observed and scored repeatedly at baseline and after a standard s.c. dose of levodopa. Locomotor activity is assessed and followed with an electronic monitoring system. Antiparkinsonian responses are evaluated by measuring the locomotor activity and a Parkinson disability scale (see Hadj Tahar A et al, Clin Neuropharmacol 2000; 23:195-202; and Samadi P et al, Neuropharmacology 2003; 45:954-963). Dyskinesias are closely monitored and scored according to a dyskinesia rating scale (also described in Hadj Tahar A et al; and Samadi P et al) every 15 minutes until the end of the effect. The doses of levodopa are chosen to induce motor activation and reproducible dyskinesia but no excessive agitation.
Monkeys are observed for at least two hours following an oral administration of vehicle. On a subsequent day, the dose of levodopa selected is tested once. The animals are observed (with measures of parkinsonian and dyskinetic scores) for the entire duration of the levodopa effect and are also monitored for locomotor activity. This provides vehicle control values as well as levodopa antiparkinsonian and dyskinesia response data for comparison with combinations of a α7-nAChR agonist/positive allosteric modulator and levodopa. The monkeys are then tested with a α7-nAChR agonist/positive allosteric modulator in combination with a fixed dose of levodopa. A suspension for oral administration of the α7-nAChR agonist/positive allosteric modulator is administered before levodopa. After each dose, the animals are observed (with measures of parkinsonian and dyskinetic scores) for the entire duration of effect and monitored for locomotor activity or any change in behavior (e.g. circling, excitement, lethargy and sleepiness).
Using this protocol, compound A-1 at a dose of 20 mg/kg was tested. Results based on five monkeys (levodopa/benserazide doses: 22.5/50 mg; 65/50 mg; 30/50 mg; 35/50 mg; and 25/50 mg) are shown in FIGS. 1-4.
For experiments shown in FIGS. 5 and 6 parkinsonian primates were treated orally with 10 mg/kg MPEP, 20 mg/kg JN403 and a combination of MPEP (10 mg/kg) and JN403 (20 mg/kg). In said experiments, compound MPEP increased the locomotor response from 230 count over 4 h to 810.

parkinsonian primates [3] = conditions: data published in WO2009047296 and Gregoire et al 2011; cited from earlier work
[4] = compound A-1 20 mg/kg oral with levodopa/benserazide, five monkeys

SMILES	Brain ([1]; 0.5 hour) [pmol/g]	Brain ([1]; 1 hour) [pmol/g]	Brain ([1]; 2 hour) [pmol/g]	Brain ([1]; 4 hour) [pmol/g]	Brain ([1]; 24 hour) [pmol/g]	Brain ([1]; 0.25 hour) [pmol/g]	Brain ([1]; 8 hour) [pmol/g]	other results
C[C@H](OC(=O)N[C@@H]1CN2CCC1CC2)c1ccccc1F [A-1, (S)-(1-aza-bicyclo[2.2.2]oct-3-yl)-carbamic acid (S)-1-(2-fluoro-phenyl)-ethyl ester]	706.3 ± 153.4	573.7 ± 109.3	191.9 ± 34.9	104.6 ± 39.6	9.1 ± 2.7	–	–	Plasma ([1]; 0.5 hour): 634.9 ± 261.3 pmol/mL; Plasma ([1]; 1 hour): 684.7 ± 339.6 pmol/mL; Plasma ([1]; 2 hour): 168.2 ± 91.3 pmol/mL; Plasma ([1]; 4 hour): 85.0 ± 54.3 pmol/mL; Brain ([1]; 6 hour): 40.5 ± 12.1 pmol/g; Plasma ([1]; 6 hour): 29.5 ± 13.8 pmol/mL; Plasma ([1]; 24 hour): 3.8 ± 0.6 pmol/mL; Reduction in time scrutinizing in % ± SEM at 24 h (mice): 52 ± 4%; antiparkinsonian activity of levodopa (antiparkinsonian score) (parkinsonian primates [2]; [4]): does not lower the antiparkinsonian activity of levodopa; onset of action of levodopa (Elapsed Time after Levodopa Administration) (parkinsonian primates [2]; [4]): does not delay the onset of action of levodopa; Duration of Levodopa-Response (parkinsonian primates [2]; compound A-1 20 mg/kg oral with levodopa/benserazide, five monkeys, extended from 230 minutes): 265 min; Mean Dyskinesia Score (total period) (parkinsonian primates [2]; compound A-1 20 mg/kg oral with levodopa/benserazide, five monkeys, reduced from 2.8): 2.1; locomotor response (parkinsonian primates [2]; oral 20 mg/kg JN403, baseline 230 count over 4 h): no effect; mean parkinsonian score (parkinsonian primates [2]; oral 20 mg/kg JN403): 9.0
C[C@H]1[C@H](Oc2ccc(-c3ccc4[nH]ccc4c3)nn2)C2CCN1CC2 [B-13, (2S,3R)-3-[6-(1H-indol-5-yl)-pyridazin-3-yloxy]-2-methyl-1-aza-bicyclo[2.2.2]octane]	2960 ± 706	2940 ± 335	1260 ± 172	379 ± 134	13 ± 4	1884 ± 291	93 ± 30	–
c1cc2cc(-c3cnc(O[C@H]4CCN5CCC[C@@H]4C5)nc3)ccc2[nH]1 [C-1, (4S,5R)-4-[5-(1H-indol-5-yl)-pyrimidin-2-yloxy]-1-aza-bicyclo[3.3.1]nonane]	1405 ± 539	1458 ± 189	1478 ± 259	842 ± 187	–	620 ± 221	362 ± 62	–
Cc1cc(/C(=C/Nc2ccc(Cl)cc2)C(=O)Nc2ccc(Cl)cc2)on1 [E-1, (Z)—N-(4-Chloro-phenyl)-3-(4-chloro-phenylamino)-2-(3-methyl-isoxazol-5-yl)-acrylamide]	–	–	–	–	–	–	–	L-dopa induced dyskinesias (parkinsonian primates [3]): able to reduce L-dopa induced dyskinesias
Cc1cccc(C#Cc2ccccc2)n1 [F-2, 2-Methyl-6-phenylethynyl-pyridine, reference compound]	–	–	–	–	–	–	–	locomotor response (parkinsonian primates [2]; oral 10 mg/kg MPEP, increased from 230): 810 count over 4 h; mean parkinsonian score (parkinsonian primates [2]; oral 10 mg/kg MPEP): 8.2
